Here are results for five compounds from patent US20220323468A1, “REDUCED NICOTINAMIDERIBOSIDES FOR THE TREATMENT/PREVENTION OF LIVER DISEASE” (SOCIETE DES PRODUITS NESTLE S.A., priority 2019, published 2022).

Structures can show the parent of a compound that is named as a salt.

One series has as its target T1, adenosine kinase (AK) (Mus musculus, UniProt P55264).
T1 construct: endogenous in cells; host or cells: AML12 cells
In words: NRH-induced NAD+ synthesis with adenosine kinase inhibitors. It counts as cell-based. On the set-up: effect of AK inhibitor on NRH action (NAD+ synthesis): dose or concentration left out as unconfirmed. The note with it: for effect of AK inhibitor on NRH action (NAD+ synthesis): AML12 cells, inhibitor (5-IT) 1 hour prior to NRH, NAD+ measured 1 hour later. On the procedure: AML12 cells were treated with an adenosine kinase inhibitor (5-IT; […]) for 1 hour prior to NRH treatment at the doses indicated. Then, 1 hour later, acidic extracts were obtained to measure NAD^+ levels.

Series [1] in a line: Intrahepatic and hepatic mitochondrial NAD+ after IP injection in mice. The note with it: NR 500 mg/kg or equimolar amounts, 1 hour later; for hepatic mitochondrial NAD+ levels: isolated liver mitochondria. Type of series: in vivo. The protocol: 10 week old male mice were fasted for 2 hours prior to intraperitoneal injection (IP) with saline as control/vehicle, nicotinamide riboside (NR; 500 mg/kg) or equimolar amounts of dihydronicotinamide riboside (NRH) or nicotinamide (NAM). Then, 1 hour later, mice were euthanized and a piece of liver was snap frozen while another piece was used for mitochondrial isolation following a published procedure (Frezza et al., 2007; Nature Protocols). The piece of snap frozen liver was weighted and submitted to acidic extraction to evaluate NAD+ levels through enzymatic methods. For isolated mitochondria, protein was quantified and 200 micrograms of protein were used for acidic extraction and NAD+ measurement through enzymatic methods. […] All results are mean+/− SEM of n=4 animals per group. * indicates statistical difference at p<0.05 vs. control/vehicle group.

Series [2] is described as follows: Stability in FBS supplemented media. The note with it: FBS supplemented media. An excerpt: (§1) NR degradation to NAM has been proposed as a limitation for its pharmacological efficacy. To evaluate whether NRH was also susceptible to degradation to NAM, we spiked NRH or NR in isolated mouse plasma. […] We also tested the stability of NRH in other matrixes.
Series [3] can be described thus: Circulating NAM, NRH and NR after IP injection in mice. It counts as in vivo. The note with it: mice, IP 500 mg/kg. The source says:
(§2) Levels of NRH and other NAD-related metabolites in biological samples were obtained by using a cold liquid-liquid extraction using a mixture of methanol:water:chloroform in 5:3:5 (v/v), from which the polar phase was recovered for hydrophilic interaction ultra-high performance liquid chromatography mass spectrometry (UHPLC-MS) analysis. The UHPLC consisted of a binary pump, a cooled autosampler, and a column oven (DIONEX Ultimate 3000 UHPLC+ Focused, Thermo Scientific), connected to a triple quadrupole spectrometer (TSQ Vantage, Thermo Scientific) equipped with a heated electrospray ionisation (H-ESI) source. Of each sample, 2 μL were injected into the analytical column (2.1 mm×150 mm, 5 μm pore size, 200 Å HILICON iHILIC®-Fusion(P)), guarded by a pre-column (2.1 mm×20 mm, 200 Å HILICON iHILIC®-Fusion(P) Guard Kit) operating at 35° C. The mobile phase (10 mM ammonium acetate at pH 9, A, and acetonitrile, B) was pumped at 0.25 mL/min flow rate over a linear gradient of decreasing organic solvent (0.5-16 min, 90-25% B), followed by re-equilibration for a total run time of 30 min. The MS operated in positive mode at 3500 V with multiple reaction monitoring (MRM). The software Xcalibur v4.1.31.9 (Thermo Scientific) was used for instrument control, data acquisition and processing. Retention time and mass detection was confirmed by authentic standards.
(§3) The above results prompted us to test whether NRH could act as an effective NAD+ precursor in vivo. For this, we first intraperitoneally (IP) injected mice with either NR or NRH (500 mg/kg).

The nature of series [4]: Stability in isolated mouse plasma. Type of series: in vitro ADME. The note with it: spiked in isolated mouse plasma, 2 h of incubation.
Excerpt: as §1

Series [5] has as its system primary hepatocytes from NRK1 knockout (NRK1KO) mice. Kind of series: NAD+ levels in primary hepatocytes from control or NRK1 knockout mice. It counts as cell-based. The note with it: after 1 hour of treatment. An excerpt:
The action of NRH was also NAMPT-independent, based on experiments using FK866, a NAMPT inhibitor. If NRH led to NAD+ synthesis via the formation of NMNH, this hypothetical path would require the phosphorylation of NRH into NMNH. Given the essential and rate-limiting role of NRK1 in NR phosphorylation, we wondered whether the ability of NRH to boost NAD+ levels was NRK1 dependent. To answer this question, we evaluated NRH action in primary hepatocytes from either control or NRK1 knockout (NRK1KO) mice. […] Further, they rule out the possibility that NRH-induced NAD+ […] is driven by NRH oxidation into NR.

A short description of series [6]: Tissue NAD+ levels after IP injection in mice. It counts as in vivo. The note with it: IP 500 mg/kg, after 1 h. The protocol: as §3
Series [7] can be described thus: Plasma NRH, NR and NAM after oral administration in mice. Type of series: in vivo. The note with it: mouse, in vivo, po. The protocol:
8 week-old C57BI/6NTac mice were orally gavaged with either saline (as vehicle), NR (500 mg/kg) or NRH (500 mg/kg). After 1 hour, liver, skeletal muscle and kidney NAD^+ levels were evaluated. All results are expressed as mean+/− SEM of n=5 mice per group. * indicates statistical difference at p<0.05 vs. vs. saline-treated mice. # indicates statistical difference at p<0.05 vs. NR treated mice.
as §2
Oral administration of NRH led to very similar results to those observed after IP administration. […] NRH was detectable in plasma 1 h after oral administration. In contrast, NR levels were undetectable at 1 h after NR administration.

The next series has as its system NMNAT. In words: NRH-induced NAD+ synthesis with NMNAT inhibitor gallotannin. Type of series: cell-based. The source says:
As a follow-up step, NMNAT enzymes could catalyze the transition from NMNH to NADH.

T1 sequence (P55264 whole entry): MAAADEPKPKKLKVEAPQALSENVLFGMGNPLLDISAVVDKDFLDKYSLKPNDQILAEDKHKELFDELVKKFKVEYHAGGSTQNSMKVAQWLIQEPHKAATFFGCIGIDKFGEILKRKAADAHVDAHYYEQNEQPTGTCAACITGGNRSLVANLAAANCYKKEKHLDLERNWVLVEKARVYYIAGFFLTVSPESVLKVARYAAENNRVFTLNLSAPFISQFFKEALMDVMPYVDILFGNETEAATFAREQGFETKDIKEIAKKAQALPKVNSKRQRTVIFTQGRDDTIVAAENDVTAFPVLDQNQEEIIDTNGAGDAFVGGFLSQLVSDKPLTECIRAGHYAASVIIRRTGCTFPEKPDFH

Take `Nc1ncnc2c1c(I)cn2[C@@H]1O[C@H](CO)[C@@H](O)[C@H]1O` [5-IT, 5-iodotubercidin]: the “effect of AK inhibitor on NRH action (NAD+ synthesis)” value at adenosine kinase (AK) is given as “fully ablated the action of NRH”. For the same compound, on adenosine kinase (AK) (with 5-IT treatment), the “formation of NR and NMN after NRH treatment” value was “prevented the formation of NR and NMN”.
On to `Nc1ncnc2nc(-c3ccc(N4CCOCC4)nc3)cc(-c3cccc(Br)c3)c12` [ABT-702], for which, at adenosine kinase (AK), the “effect of AK inhibitor on NRH action (NAD+ synthesis)” value is on record as “confirmed”.
As for `NC(=O)c1cccnc1` [NAM, nicotinamide], in series [1], the “intrahepatic NAD+” value is on record as “increase intrahepatic NAD+” and the “hepatic mitochondrial NAD+ levels” value is reported as “only NRH increases mitochondrial NAD+ levels”.
For `NC(=O)c1ccc[n+]([C@@H]2O[C@H](CO)[C@H](O)C2O)c1` (stereo partly drawn) [NR, 1-b-D-ribofuranosyl-3-pyridinecarboxamide salt, reference compound], the “degradation to NAM” value in series [2] was “as occurs with NR”. The “NAM levels in circulation” value in series [3] is reported as “highly increased”. In [4], the “compound levels in plasma” value is given as “decayed” and the “generation of NAM in plasma” value is reported as “increase in NAM”. Also, the “NAD+ levels in NRK1KO derived primary hepatocytes” value in [5] is “failed to increase NAD+ levels”. Further, in series [6], the “NAD+ levels in kidney” value is listed as “increased NAD+ levels”, the “NAD+ levels in liver” value was “increased NAD+ levels” and the “NAD+ levels in muscle” value is “increased NAD+ levels”. For the same compound, in series [1], the “intrahepatic NAD+” value is “increase intrahepatic NAD+” and the “hepatic mitochondrial NAD+ levels” value is “only NRH increases mitochondrial NAD+ levels”. Also, the “circulating NAM relative to that after NRH treatment” value in [7] (C57BI/6NTac, 1 h) is listed as around 4 fold. Besides, in [7], the “administered compound in plasma” value was “undetectable” and the “circulating NAM” value is “large increases”.
For the compound `O=C(OC[C@H]1O[C@@H](OC(=O)c2cc(O)c(O)c(OC(=O)c3cc(O)c(O)c(O)c3)c2)[C@H](OC(=O)c2cc(O)c(O)c(OC(=O)c3cc(O)c(O)c(O)c3)c2)[C@@H](OC(=O)c2cc(O)c(O)c(OC(=O)c3cc(O)c(O)c(O)c3)c2)[C@@H]1OC(=O)c1cc(O)c(O)c(OC(=O)c2cc(O)c(O)c(O)c2)c1)c1cc(O)c(O)c(OC(=O)c2cc(O)c(O)c(O)c2)c1` [gallotannin], in the series on NMNAT, the “effect of NMNAT inhibitor on NAD+ synthesis after NRH treatment” value is on record as “largely compromised NAD+ synthesis”. Besides, the “effect of NMNAT inhibitor on NRH action” value in the series on NMNAT (NRH at maximal doses (0.5 mM)) is given as “part of the NRH action remained”; in the series on NMNAT (NRH at submaximal doses), “totally blocked”.
